Experimental data reported in US20220226257A1, “USE OF CANNABINOIDS IN THE TREATMENT OF COM[…] EPILEPSY” (GW Research Limited, priority 2019, published 2022).

Experiments:
[1] = tested on: patients with Lennox-Gastaut syndrome; assay: Biostatistical analysis of QOLCE subscale scores versus placebo, randomised controlled trial; format: in vivo, human; set-up: key to Biostatistical analysis of QOL subscale score versus placebo: ↔: no change (indicated by); ↑: a difference of greater than 10 points between medians (indicated by t); this change was statistically significant (indicated by *); settings: 20 mg/kg/day
Excerpt: The following example uses biostatistical analysis to look for trends in QOL data collected in a randomised controlled trial of cannabidiol in patients with Lennox-Gastaut syndrome.
(§1) This study was a 1:1 randomised, double-blind, 14-week comparison of cannabidiol oral solution (CBD-OS) versus placebo. The treatment period consisted of a two-week titration period followed by a 12-week maintenance period. The treatment period was followed by a 10-day taper period and a four-week follow-up period. The study aimed to determine the efficacy, safety and tolerability of 20 mg/kg/day cannabidiol compared with placebo.
(§2) The Quality of Life in Childhood Epilepsy (QOLCE) survey was used to measure multiple QOL domains. Caregivers completed the survey at baseline and after the 12 weeks of treatment. The QOLCE questionnaire assessed 91 items divided into five sub-domains: physical function; cognitive function; emotional well-being; social function and behaviour. General health was also recorded.
Table 6 below details the areas where there no change (indicated by or a difference of greater than 10 points between medians (indicated by t), and whether this change was statistically significant (indicated by *).

[2] = tested on: paediatric patients with epilepsy; settings: care-giver-reported, 12 weeks open label; cited from earlier work
[3] = tested on: children and young adults with severe, childhood onset treatment-resistant epilepsy (TRE); assay: Principal component analysis of QOLCE survey data, open label (expanded access) study of CBD; format: in vivo, human
Procedure: PCA is a useful tool to visualise relatedness between populations of data and was used in the present example to determine the symptom domains that were improved during an open label study of cannabidiol (CBD) in patients with treatment resistant epilepsy.
(§3) Children and young adults with severe, childhood onset treatment-resistant epilepsy (TRE) were tested with a highly purified extract of cannabidiol (CBD) obtained from a cannabis plant. The participants in the study were part of an expanded access compassionate use program for CBD.
(§4) All patients entered a baseline period of 4 weeks when parents/caregivers kept prospective seizure diaries, noting all countable motor seizure types.
(§5) The patients then received a highly purified CBD extract (greater than 98% CBD w/w) in sesame oil, of known and constant composition, at a dose of 5 mg/kg/day in addition to their baseline anti-epileptic drug (AED) regimen.
(§6) Laboratory testing for hematologic, liver, kidney function, and concomitant AED levels was performed at baseline, and at regular intervals throughout the 12 weeks of the study.
as §2, with “Caregivers completed the survey at baseline and after the 12 weeks of treatment.” left out, “recorded. […]” for “recorded.”

[4] = tested on: epileptic male Wistar rats (RISE-SRS); settings: shown previously; cited from earlier work
[5] = tested on: patients suffering from epilepsy syndromes (childhood onset treatment-resistant epilepsy); assay: Case study analysis of quality of life measures, open label study (expanded access programme); format: in vivo, human
Procedure: The present example provides further data on additional epilepsy syndromes which were studied as part of the expanded access programme described in Example 1.
as §3, §4, §5, §6
Table 7 below details the results obtained at the end of the study period (after between 12 and 108 weeks) from patients suffering from epilepsy syndromes in an open label study.

[6] = tested on: children and young adults with treatment resistant epilepsy associated with Dravet syndrome and Lennox-Gastaut syndrome; assay: Principal component analysis of QOLCE survey data pooled from three randomised controlled clinical trials; format: in vivo, human
Excerpt: As described in Example 1 above PCA is a useful tool to scrutinise data which have several variables. A similar analysis was undertaken on the data produced using data pooled from three randomised controlled clinical trials on children and young adults with treatment resistant epilepsy associated with Dravet syndrome (one trial) and Lennox-Gastaut syndrome (LGS) (2 trials).
In the two placebo-controlled studies of CBD as a treatment for seizures associated with LGS, cannabidiol (CBD) was used as add-on treatment in patients who were defined as treatment-resistant. Patients had previously tried and stopped using a median of 6 AEDs and were being maintained on a median of 3 AEDs.
as §1, with “The first” for “This”, “The study aimed to determine the efficacy, safety and tolerability of 20 mg/kg/day cannabidiol compared with placebo.” left out
as §2, with “Caregivers completed the survey at baseline and after the 12 weeks of treatment.” left out

C=C(C)[C@@H]1CCC(C)=C[C@H]1c1c(O)cc(CCCCC)cc1O [CBD, Cannabidiol]
QOL domains with a significant increase above baseline ([1]; Lennox-Gastaut syndrome): memory and language
domains with a decrease in quality of life ([1]; Lennox-Gastaut syndrome): no domains where there was a decrease in quality of life
Biostatistical analysis of QOL subscale score versus placebo ([1]; QOL subscale: Anxiety): ↔
Biostatistical analysis of QOL subscale score versus placebo ([1]; QOL subscale: Attention / concentration): ↔
Biostatistical analysis of QOL subscale score versus placebo ([1]; QOL subscale: Behaviour): ↔
Biostatistical analysis of QOL subscale score versus placebo ([1]; QOL subscale: Control / helplessness): ↔
Biostatistical analysis of QOL subscale score versus placebo ([1]; QOL subscale: Depression): ↔
Biostatistical analysis of QOL subscale score versus placebo ([1]; QOL subscale: Energy/fatigue): ↔
Biostatistical analysis of QOL subscale score versus placebo ([1]; QOL subscale: General health): ↔
Biostatistical analysis of QOL subscale score versus placebo ([1]; QOL subscale: Language): ↑*
Biostatistical analysis of QOL subscale score versus placebo ([1]; QOL subscale: Memory): ↑*
Biostatistical analysis of QOL subscale score versus placebo ([1]; QOL subscale: Other cognitive): ↑*
Biostatistical analysis of QOL subscale score versus placebo ([1]; QOL subscale: Physical restriction): ↔
Biostatistical analysis of QOL subscale score versus placebo ([1]; QOL subscale: Self-esteem): ↔
Biostatistical analysis of QOL subscale score versus placebo ([1]; QOL subscale: Social activities): ↔
Biostatistical analysis of QOL subscale score versus placebo ([1]; QOL subscale: Social interaction): ↑ (a difference of greater than 10 points between medians (indicated by t))
Biostatistical analysis of QOL subscale score versus placebo ([1]; QOL subscale: Stigma item): ↔
QOLCE areas with improvements [2]: energy/fatigue; memory; other cognitive functions; control/helplessness; social interactions; behaviour and global quality of life
areas where improvement was observed without an improvement of seizures ([3]; bottom right area of the biplot): control/helplessness and stigma item
areas associated with quality of life with improvements (right of the zero F1 axis) ([3]; open label study, 12 weeks, 5 to 50 mg/kg/day): attention and concentration; QOL item; energy/fatigue; control/helplessness and stigma item
cognitive performances of rats exhibiting spontaneous recurrent seizures [4]: restore the deteriorated cognitive performances
seizure ratio of rats exhibiting spontaneous recurrent seizures [4]: improved the seizure ratio
patients with a positive response (slightly improved; much improved or very much improved) ([5]; of the 39 patients for which data were recorded): 34
QOL measure: Very much improved ([5]; patient 245-01, SNAP25, end of study period): ✓
QOL measure: Very much improved ([5]; patient 245-03, FIRES, end of study period): ✓
QOL measure: Much improved ([5]; patient 245-06, DUP15Q, end of study period): ✓
QOL measure: Very much improved ([5]; patient 245-08, CDKL5, end of study period): ✓
QOL measure: Very much improved ([5]; patient 245-11, CDKL5, end of study period): ✓
QOL measure: Very much improved ([5]; patient 245-12, Aicardi, end of study period): ✓
QOL measure: Much improved ([5]; patient 245-28, Aicardi, end of study period): ✓
QOL measure: Much improved ([5]; patient 245-32, DUP15Q, end of study period): ✓
QOL measure: Very much improved ([5]; patient 245-37, CDKL5, end of study period): ✓
QOL measure: Slightly improved ([5]; patient 245-38, CDKL5, end of study period): ✓
QOL measure: Much improved ([5]; patient 245-40, DUP15Q, end of study period): ✓
QOL measure: Much improved ([5]; patient 245-42, DUP15Q, end of study period): ✓
QOL measure: Slightly improved ([5]; patient 245-43, DUP15Q, end of study period): ✓
QOL measure: Slightly improved ([5]; patient 245-45, CDKL5, end of study period): ✓
QOL measure: Very much improved ([5]; patient 245-47, CDKL5, end of study period): ✓
QOL measure: Very much improved ([5]; patient 245-48, CDKL5, end of study period): ✓
QOL measure: Slightly worse ([5]; patient 245-56, CDKL5, end of study period): ✓
QOL measure: Much improved ([5]; patient 245-57, Aicardi, end of study period): ✓
QOL measure: Much improved ([5]; patient FIL-01, Aicardi, end of study period): ✓
QOL measure: Very much improved ([5]; patient FIL-09, Doose, end of study period): ✓
QOL measure: Much improved ([5]; patient FIL-14, Doose, end of study period): ✓
QOL measure: Slightly worse ([5]; patient FIL-25, Aicardi, end of study period): ✓
QOL measure: No change ([5]; patient FLAM-25, Tuberous sclerosis, end of study period): ✓
QOL measure: Very much improved ([5]; patient LCH-04, Aicardi, end of study period): ✓
QOL measure: No change ([5]; patient LCH-08, Aicardi, end of study period): ✓
QOL measure: Very much improved ([5]; patient LCH-12, Aicardi, end of study period): ✓
QOL measure: Very much improved ([5]; patient LCH-18, FIRES, end of study period): ✓
QOL measure: Very much improved ([5]; patient LCH-21, CDKL5, end of study period): ✓
QOL measure: Very much improved ([5]; patient LCH-22, Tuberous sclerosis, end of study period): ✓
QOL measure: Much worse ([5]; patient MAR-E1, FIRES, end of study period): ✓
QOL measure: Very much improved ([5]; patient MAR-E2, FIRES, end of study period): ✓
QOL measure: Very much improved ([5]; patient PAT-10, Aicardi, end of study period): ✓
QOL measure: Very much improved ([5]; patient PAT-11, Aicardi, end of study period): ✓
QOL measure: Very much improved ([5]; patient PAT-21, Aicardi, end of study period): ✓
QOL measure: Much improved ([5]; patient PAT-26, Aicardi, end of study period): ✓
QOL measure: Much improved ([5]; patient WIL-02, Sturge Weber, end of study period): ✓
QOL measure: Much improved ([5]; patient WIL-05, Doose, end of study period): ✓
QOL measure: Much improved ([5]; patient WIL-09, CDKL5, end of study period): ✓
QOL measure: Much improved ([5]; patient WIL-10, Angelman, end of study period): ✓
quality of life in patients with additional epilepsy syndromes ([5]; tuberous sclerosis, CDKL5, Sturge Weber, Doose, Angelman, SNAP25, FIRES, DUP15Q, Aicardi): observable improvement in quality of life
areas of QOL improved despite no improvement in seizure burden [6]: memory; language; control/helplessness; stigma item and cognition
areas associated with quality of life with improvements ([6]; 10 or 20 mg/kg/day): quality of life item; general health; social interactions; social activities; attention/concentration; overall quality of life; memory; language; control/helplessness; stigma item and cognition
